Structures can show the parent of a compound that is named as a salt.
Experiments:
AKT phosphorylation = assay: In vitro test of inhibition on AKT phosphorylation in IgM-stimulated Ramos cells (ELISA); type: cell-based; conditions: anti-human IgM stimulation
Source text: 5.1 Purpose of experiment: to detect the protein kinase AKT phosphorylation in cells by enzyme-linked immunosorbent assay (ELISA), and evaluate the inhibition of the compound on the AKT phosphorylation by taking the half-inhibitory concentration (IC50) value of the compound as an index. […]

[1] = Hygroscopicity by dynamic vapor sorption (DVS); type: physicochemical
Procedure: Instrument: SMS DVS Advantage;
The DVS parameters are as follows:
Balancing: dm/dt=0.01%/min (shortest: 10 min, longest: 180 min)
drying: drying at 0% RH for 120 min
RH (%) test gradient: 10%
Range of RH (%) test gradient: 0%-90%-0%

[2] = Stability of crystalline form suspended in organic solvent (XRPD); type: physicochemical; conditions: methanol, ethanol, ethyl acetate, acetone, acetonitrile, tetrahydrofuran, 1,4-dioxane, n-hexane; 20° C. and 50° C., 24 h
Procedure: After being added with methanol (4 mL), the glass vial was placed on a magnetic stirrer, and the mixture was stirred at 20° C. and 50° C., each for 24 h.
According to the above method, ethanol, ethyl acetate, acetone, acetonitrile, tetrahydrofuran, 1,4-dioxane and n-hexane were used as solvents to conduct parallel tests.

[3] = Stability of crystalline form at high temperature, high humidity and illumination (XRPD); type: physicochemical
Source text: The vials in which the samples were placed at high temperature and high humidity were sealed with aluminum foil, and small holes were provided in the aluminum foil to ensure that the samples were sufficiently contacted with atmospheric air. The vial in which the sample was placed under strong light was placed open without sealing with aluminum foil. The samples placed under different conditions were taken and tested for XRPD spectrum on day 5 and day 10.

IC50 (AKT phosphorylation) [nM] | ΔW (DVS weight gain) ([1]; 25° C., RH 0%-90%-0%) [%] | Hygroscopicity ([1]; 25±1° C. and 80±2% RH) | XRPD spectrum after suspension in solvent [2] | Crystalline form ([3]; Day 0 (initial), XRPD) | Crystalline form ([3]; High humidity (room temperature/relative humidity 92.5%, open), Day 5, XRPD) | Crystalline form ([3]; High humidity (room temperature/relative humidity 92.5%, open), Day 10, XRPD) | Crystalline form ([3]; High temperature (60° C., open), Day 5, XRPD) | Crystalline form ([3]; High temperature (60° C., open), Day 10, XRPD) | Crystalline form ([3]; Illumination (total illuminance of 1.2 × 10^6 Lux·hr/near UV energy of 200 w·hr/m^2, open), XRPD) | Stability under high temperature, high humidity and illumination ([3]; overall conclusion) | SMILES
170 |  |  |  |  |  |  |  |  |  |  | Cn1c(=O)c(Nc2ccc(N3CCN(C4COC4)CC3)cn2)cc2c(F)c(-c3cc[nH]n3)ccc21 [Compound of formula I, 5-fluoro-1-methyl-3-((5-(4-(oxetan-3-yl)piperazin-1-yl)pyridin-2-yl)amino)-6-(1H-pyrazol-3-yl)quinolin-2(1H)-one]
 | 1.371 | less hygroscopic | doesn't change | Form A crystal | Form A crystal | Form A crystal | Form A crystal | Form A crystal | Form A crystal | good stability | Cn1c(=O)c(Nc2ccc(N3CCN(C4COC4)CC3)cn2)cc2c(F)c(-c3cc[nH]n3)ccc21 [5-fluoro-1-methyl-3-((5-(4-(oxetan-3-yl)piperazin-1-yl)pyridin-2-yl)amino)-6-(1H-pyrazol-3-yl)quinolin-2(1H)-one hydrochloride]

— patent publication US12187710B2, “Salt of Syk inhibitor and crystalline form thereof” (CHIA TAI TIANQING PHARMACEUTICAL GROUP CO., LTD., priority 2018, dated 2025)
